Results published in PMC4415987 (Biomarkers : biochemical indicators of exposure, response, …, 2009).

Legend:
MAO-B = biological target: T1, MAO-B (Homo sapiens, UniProt P27338); test: Platelet MAO-B activity; format: biochemical; details: human platelets in vitro; for LOAEL toward MAO-B: not modified by MeHg addition
T1 sequence (P27338 1-520): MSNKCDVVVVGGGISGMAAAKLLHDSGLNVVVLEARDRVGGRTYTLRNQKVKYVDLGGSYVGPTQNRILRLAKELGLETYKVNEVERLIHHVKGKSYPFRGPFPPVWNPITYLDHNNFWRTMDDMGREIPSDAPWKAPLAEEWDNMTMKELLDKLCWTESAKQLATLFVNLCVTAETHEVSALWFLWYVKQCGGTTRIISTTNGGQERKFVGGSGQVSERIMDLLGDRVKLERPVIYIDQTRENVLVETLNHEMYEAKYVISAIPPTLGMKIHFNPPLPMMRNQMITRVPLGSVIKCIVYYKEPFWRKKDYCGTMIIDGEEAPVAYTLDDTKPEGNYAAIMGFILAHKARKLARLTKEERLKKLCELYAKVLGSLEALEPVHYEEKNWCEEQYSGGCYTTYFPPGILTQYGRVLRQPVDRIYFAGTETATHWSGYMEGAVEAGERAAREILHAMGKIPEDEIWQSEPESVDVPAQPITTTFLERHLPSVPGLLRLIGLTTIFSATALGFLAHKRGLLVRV

[1] = weaning rats given 1 mg MeHg kg−1 daily perinatally, cited from earlier work
lymphocyte mAChRs = format: binding, human; details: for LOAEL toward mAChRs: human lymphocytes in vitro, PCB values regardless of the presence of MeHg

Structure (SMILES) | LOAEL toward mAChRs (lymphocyte mAChRs) [µM] | LOAEL toward MAO-B (MAO-B) [µM] | further results
[CH3][Hg][Cl] [MeHg, methylmercury] | 1 | – | inhibitory effect on MAO-B activity (MAO-B; MeHg up to 1 mM): negligible; Hg concentration in the blood ([1]; ref Coccini et al. 2007a): 1.3 ± 0.4 µg/mL; Hg concentration in the brain ([1]; ref Coccini et al. 2007b): 1.5–2.8 ppm; IC50 (lymphocyte mAChRs; read-out: IC50, inhibition of [3H]QNB binding to lymphocyte mAChRs): 5 ± 0.9 µM
Clc1ccc(-c2ccc(Cl)c(Cl)c2)cc1Cl [PCB-77] | 0.1 | 10 | –
Clc1ccc(-c2ccc(Cl)c(Cl)c2Cl)cc1Cl [PCB-105] | 1 | 1 | –
Clc1cc(Cl)c(-c2cc(Cl)c(Cl)cc2Cl)cc1Cl [PCB-153, 2,2′,4,4′,5,5′-hexachlorobiphenyl] | 1 | – | IC50, MAO-B activity (MAO-B; in the presence or absence of 1 mM MeHg): No effect
Oc1c(Cl)cc(-c2ccc(Cl)c(Cl)c2)c(Cl)c1Cl [4-OH-PCB-107] | 1 | 10 | –
Clc1ccc(-c2cc(Cl)c(Cl)cc2Cl)cc1Cl [PCB-118] | 1 | 10 | –
Clc1ccc(-c2ccc(Cl)cc2Cl)cc1 [PCB-28] | 1 | 10 | –
